Experimental data reported in ChEMBL document CHEMBL2203267, “Synthesis, antioxidant and antimicrobial activity of novel vanillin derived piperidin-4-one oxime esters: preponderant role of the phenyl ester substituents on the piperidin-4-one oxime core” (Bioorg Med Chem Lett, 2012).

What was measured:
[1] = Antifungal activity against Chrysosporium keratinophilum MTCC 2827 at 500 ug/mL after 72 hrs by well plate method; type: functional
Staphylococcus aureus [2] = test: Antibacterial activity against Staphylococcus aureus ATCC 25923 at 500 ug/mL after 24 hrs by well plate method; type: functional; details: ATCC 25923, 24 h, read-out: DIZ
Aspergillus flavus [3] = test: Antifungal activity against Aspergillus flavus MTCC 3306 at 500 ug/mL after 72 hrs by well plate method; type: functional; details: MTCC 3306, 72 h, read-out: DIZ
Staphylococcus aureus [4] = test: Antibacterial activity against Staphylococcus aureus ATCC 25923 at 1000 ug/mL after 24 hrs by well plate method; type: functional; details: ATCC 25923, 24 h, read-out: DIZ
Pseudomonas aeruginosa [5] = test: Antibacterial activity against Pseudomonas aeruginosa ATCC 27853 at 500 ug/mL after 24 hrs by well plate method; type: functional; details: ATCC 27853, 24 h, read-out: DIZ
[6] = Antioxidant activity assessed as ABTS+ radical scavenging activity after 30 mins by UV-vis spectrophotometric analysis; type: functional
Candida albicans [7] = test: Antifungal activity against Candida albicans MTCC 3017 at 500 ug/mL after 72 hrs by well plate method; type: functional; details: MTCC 3017, 72 h, read-out: DIZ
Liver microsomes = test: Antioxidant activity in Wistar rat liver microsomes assessed as inhibition of lipid peroxidation after 60 mins by UV-vis spectrophotometric analysis; type: functional, Microsome
[8] = tested on: Radical scavenging activity; test: Antioxidant activity assessed as DPPH radical scavenging activity after 20 mins by UV-vis spectrophotometric analysis; type: functional
Aspergillus flavus [9] = test: Antifungal activity against Aspergillus flavus MTCC 3306 at 1000 ug/mL after 72 hrs by well plate method; type: functional; details: MTCC 3306, 72 h, read-out: DIZ
Escherichia coli [10] = test: Antibacterial activity against Escherichia coli ATCC 25922 at 500 ug/mL after 24 hrs by well plate method; type: functional; details: ATCC 25922, 24 h, read-out: DIZ
[11] = Antifungal activity against Chrysosporium keratinophilum MTCC 2827 at 1000 ug/mL after 72 hrs by well plate method; type: functional
Pseudomonas aeruginosa [12] = test: Antibacterial activity against Pseudomonas aeruginosa ATCC 27853 at 1000 ug/mL after 24 hrs by well plate method; type: functional; details: ATCC 27853, 24 h, read-out: DIZ
Candida albicans [13] = test: Antifungal activity against Candida albicans MTCC 3017 at 1000 ug/mL after 72 hrs by well plate method; type: functional; details: MTCC 3017, 72 h, read-out: DIZ
Escherichia coli [14] = test: Antibacterial activity against Escherichia coli ATCC 25922 at 1000 ug/mL after 24 hrs by well plate method; type: functional; details: ATCC 25922, 24 h, read-out: DIZ

SMILES: COc1cc(C2CC(=NOC(=O)c3ccc(F)cc3)CC(c3ccc(O)c(OC)c3)N2C)ccc1O (configuration not stated)
- inhibition zone (IZ) [1]: 14 mm
- zone of inhibition at 500 µg/mL (Staphylococcus aureus [2]): 13 mm
- zone of inhibition at 500 µg/mL (Aspergillus flavus [3]): 13 mm
- zone of inhibition at 1000 µg/mL (Staphylococcus aureus [4]): 15 mm
- zone of inhibition at 500 µg/mL (Pseudomonas aeruginosa [5]): 13 mm
- IC50 [6]: 141 µM
- zone of inhibition at 500 µg/mL (Candida albicans [7]): 18 mm
- IC50 (Liver microsomes): 140 µM
- IC50 [8]: 133 µM
- zone of inhibition at 1000 µg/mL (Aspergillus flavus [9]): 17 mm
- zone of inhibition at 500 µg/mL (Escherichia coli [10]): 13 mm
- inhibition zone (IZ) [11]: 12 mm
- zone of inhibition at 1000 µg/mL (Pseudomonas aeruginosa [12]): 16 mm
- zone of inhibition at 1000 µg/mL (Candida albicans [13]): 20 mm
- zone of inhibition at 1000 µg/mL (Escherichia coli [14]): 18 mm

SMILES: COc1cc(C2CC(=NOC(=O)c3cc(O)cc(O)c3)CC(c3ccc(O)c(OC)c3)N2C)ccc1O (configuration not stated)
- inhibition zone (IZ) [1]: 2 mm
- zone of inhibition at 500 µg/mL (Staphylococcus aureus [2]): 5 mm
- zone of inhibition at 500 µg/mL (Aspergillus flavus [3]): 1 mm
- zone of inhibition at 1000 µg/mL (Staphylococcus aureus [4]): 5 mm
- zone of inhibition at 500 µg/mL (Pseudomonas aeruginosa [5]): 4 mm
- IC50 [6]: 12.3 µM
- zone of inhibition at 500 µg/mL (Candida albicans [7]): 3 mm
- IC50 (Liver microsomes): 17.2 µM
- IC50 [8]: 10.8 µM
- zone of inhibition at 1000 µg/mL (Aspergillus flavus [9]): 2 mm
- zone of inhibition at 500 µg/mL (Escherichia coli [10]): 5 mm
- inhibition zone (IZ) [11]: 1 mm
- zone of inhibition at 1000 µg/mL (Pseudomonas aeruginosa [12]): 5 mm
- zone of inhibition at 1000 µg/mL (Candida albicans [13]): 3 mm
- zone of inhibition at 1000 µg/mL (Escherichia coli [14]): 4 mm

SMILES: COc1cc(C2CC(=NOC(=O)c3ccccc3O)CC(c3ccc(O)c(OC)c3)N2C)ccc1O (configuration not stated)
- inhibition zone (IZ) [1]: 4 mm
- zone of inhibition at 500 µg/mL (Staphylococcus aureus [2]): 5 mm
- zone of inhibition at 500 µg/mL (Aspergillus flavus [3]): 3 mm
- zone of inhibition at 1000 µg/mL (Staphylococcus aureus [4]): 5 mm
- zone of inhibition at 500 µg/mL (Pseudomonas aeruginosa [5]): 3 mm
- IC50 [6]: 15.9 µM
- zone of inhibition at 500 µg/mL (Candida albicans [7]): 2 mm
- IC50 (Liver microsomes): 24.1 µM
- IC50 [8]: 14.8 µM
- zone of inhibition at 1000 µg/mL (Aspergillus flavus [9]): 4 mm
- zone of inhibition at 500 µg/mL (Escherichia coli [10]): 4 mm
- inhibition zone (IZ) [11]: 6 mm
- zone of inhibition at 1000 µg/mL (Pseudomonas aeruginosa [12]): 4 mm
- zone of inhibition at 1000 µg/mL (Candida albicans [13]): 6 mm
- zone of inhibition at 1000 µg/mL (Escherichia coli [14]): 6 mm

SMILES: CN[C@@H]1[C@H](O[C@H]2[C@H](O[C@H]3[C@H](O)[C@@H](O)[C@H](N=C(N)N)[C@@H](O)[C@@H]3N=C(N)N)O[C@@H](C)[C@]2(O)C=O)O[C@@H](CO)[C@H](O)[C@H]1O [STREPTOMYCIN]
- zone of inhibition at 500 µg/mL (Staphylococcus aureus [2]): 12 mm
- zone of inhibition at 1000 µg/mL (Staphylococcus aureus [4]): 15 mm
- zone of inhibition at 500 µg/mL (Pseudomonas aeruginosa [5]): 13 mm
- zone of inhibition at 500 µg/mL (Escherichia coli [10]): 12 mm
- zone of inhibition at 1000 µg/mL (Pseudomonas aeruginosa [12]): 16 mm
- zone of inhibition at 1000 µg/mL (Escherichia coli [14]): 18 mm

SMILES: COc1cc(C2CC(=NOC(=O)c3ccc(Cl)cc3)CC(c3ccc(O)c(OC)c3)N2C)ccc1O (configuration not stated)
- inhibition zone (IZ) [1]: 12 mm
- zone of inhibition at 500 µg/mL (Staphylococcus aureus [2]): 9 mm
- zone of inhibition at 500 µg/mL (Aspergillus flavus [3]): 12 mm
- zone of inhibition at 1000 µg/mL (Staphylococcus aureus [4]): 13 mm
- zone of inhibition at 500 µg/mL (Pseudomonas aeruginosa [5]): 12 mm
- IC50 [6]: 112 µM
- zone of inhibition at 500 µg/mL (Candida albicans [7]): 16 mm
- IC50 (Liver microsomes): 121 µM
- IC50 [8]: 110 µM
- zone of inhibition at 1000 µg/mL (Aspergillus flavus [9]): 15 mm
- zone of inhibition at 500 µg/mL (Escherichia coli [10]): 12 mm
- inhibition zone (IZ) [11]: 10 mm
- zone of inhibition at 1000 µg/mL (Pseudomonas aeruginosa [12]): 15 mm
- zone of inhibition at 1000 µg/mL (Candida albicans [13]): 19 mm
- zone of inhibition at 1000 µg/mL (Escherichia coli [14]): 17 mm

SMILES: COc1cc(C2CC(=NOC(=O)c3cccc(O)c3)CC(c3ccc(O)c(OC)c3)N2C)ccc1O (configuration not stated)
- inhibition zone (IZ) [1]: 1 mm
- zone of inhibition at 500 µg/mL (Staphylococcus aureus [2]): 5 mm
- zone of inhibition at 500 µg/mL (Aspergillus flavus [3]): 1 mm
- zone of inhibition at 1000 µg/mL (Staphylococcus aureus [4]): 7 mm
- zone of inhibition at 500 µg/mL (Pseudomonas aeruginosa [5]): 3 mm
- IC50 [6]: 16.5 µM
- zone of inhibition at 500 µg/mL (Candida albicans [7]): 1 mm
- IC50 (Liver microsomes): 25.3 µM
- IC50 [8]: 15.6 µM
- zone of inhibition at 1000 µg/mL (Aspergillus flavus [9]): 2 mm
- zone of inhibition at 500 µg/mL (Escherichia coli [10]): 6 mm
- inhibition zone (IZ) [11]: 2 mm
- zone of inhibition at 1000 µg/mL (Pseudomonas aeruginosa [12]): 5 mm
- zone of inhibition at 1000 µg/mL (Candida albicans [13]): 3 mm
- zone of inhibition at 1000 µg/mL (Escherichia coli [14]): 7 mm

SMILES: COc1cc(C2CC(=NOC(=O)c3ccc(O)cc3)CC(c3ccc(O)c(OC)c3)N2C)ccc1O (configuration not stated)
- inhibition zone (IZ) [1]: 2 mm
- zone of inhibition at 500 µg/mL (Staphylococcus aureus [2]): 4 mm
- zone of inhibition at 500 µg/mL (Aspergillus flavus [3]): 12 mm
- zone of inhibition at 1000 µg/mL (Staphylococcus aureus [4]): 6 mm
- zone of inhibition at 500 µg/mL (Pseudomonas aeruginosa [5]): 2 mm
- IC50 [6]: 15.1 µM
- zone of inhibition at 500 µg/mL (Candida albicans [7]): 2 mm
- IC50 (Liver microsomes): 22.5 µM
- IC50 [8]: 14.2 µM
- zone of inhibition at 1000 µg/mL (Aspergillus flavus [9]): 1 mm
- zone of inhibition at 500 µg/mL (Escherichia coli [10]): 4 mm
- inhibition zone (IZ) [11]: 3 mm
- zone of inhibition at 1000 µg/mL (Pseudomonas aeruginosa [12]): 3 mm
- zone of inhibition at 1000 µg/mL (Candida albicans [13]): 2 mm
- zone of inhibition at 1000 µg/mL (Escherichia coli [14]): 5 mm

SMILES: OC(Cn1cncn1)(Cn1cncn1)c1ccc(F)cc1F [FLUCONAZOLE]
- inhibition zone (IZ) [1]: 16 mm
- zone of inhibition at 500 µg/mL (Aspergillus flavus [3]): 12 mm
- zone of inhibition at 500 µg/mL (Candida albicans [7]): 20 mm
- zone of inhibition at 1000 µg/mL (Aspergillus flavus [9]): 14 mm
- inhibition zone (IZ) [11]: 17 mm
- zone of inhibition at 1000 µg/mL (Candida albicans [13]): 22 mm
